Test results: PubChem BioAssay AID1794821

Target: Sodium/hydrogen exchanger 9B2 (Homo sapiens) (UniProt Q86UD5)
Assay: SLC9B2 sodium/proton exchange inhibitors – cell-based, pHluorin biosensor fluorescence, HEK-293, SLC9B2 overexpression, dose response (AID 1794821)
Conditions: HEK-293 SLC9B2 OE, pHluorin pH biosensor fluorescence

Sequence of Sodium/hydrogen exchanger 9B2 (Homo sapiens) (Q86UD5 whole entry, looked up): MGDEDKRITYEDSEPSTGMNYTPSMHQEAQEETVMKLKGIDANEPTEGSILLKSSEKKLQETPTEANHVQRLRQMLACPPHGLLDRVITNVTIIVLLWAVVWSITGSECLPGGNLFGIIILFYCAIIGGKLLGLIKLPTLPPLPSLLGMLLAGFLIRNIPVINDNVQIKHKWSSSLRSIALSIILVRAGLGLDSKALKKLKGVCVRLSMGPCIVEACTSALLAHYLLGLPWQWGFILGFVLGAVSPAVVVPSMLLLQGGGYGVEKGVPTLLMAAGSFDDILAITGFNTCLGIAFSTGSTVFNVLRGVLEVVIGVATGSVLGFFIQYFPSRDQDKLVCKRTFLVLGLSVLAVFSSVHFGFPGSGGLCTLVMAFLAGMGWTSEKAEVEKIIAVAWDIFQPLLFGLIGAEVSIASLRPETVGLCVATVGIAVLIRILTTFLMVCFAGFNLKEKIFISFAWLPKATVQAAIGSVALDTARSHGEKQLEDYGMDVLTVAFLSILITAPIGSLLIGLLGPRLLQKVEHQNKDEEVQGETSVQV

SMILES: O=C(CCc1ccc(O)cc1)c1c(O)cc(O)cc1O
- IC50: 90 µM
